In one assay the target is T1, IDO1 (Homo sapiens, UniProt P14902).
T1 construct: HeLa cells were treated with a test compound in the presence of IFNγ, which induces IDO1 expression; host or cells: H1-HeLa cells, IDO1 induced with IFNγ
T1 sequence (P14902 whole entry): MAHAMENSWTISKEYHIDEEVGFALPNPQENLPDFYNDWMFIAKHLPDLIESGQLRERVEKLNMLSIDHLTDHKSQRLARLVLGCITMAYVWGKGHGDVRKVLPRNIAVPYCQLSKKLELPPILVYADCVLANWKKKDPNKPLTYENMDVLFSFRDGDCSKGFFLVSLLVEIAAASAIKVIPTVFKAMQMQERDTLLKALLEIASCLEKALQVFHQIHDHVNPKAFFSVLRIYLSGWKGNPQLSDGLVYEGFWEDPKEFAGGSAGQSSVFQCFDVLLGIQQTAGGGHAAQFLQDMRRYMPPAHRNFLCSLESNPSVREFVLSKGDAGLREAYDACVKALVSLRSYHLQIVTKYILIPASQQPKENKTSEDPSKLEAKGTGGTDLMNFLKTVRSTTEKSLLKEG
Briefly: Cell-based (HeLa) assay for measurement of IDO1 inhibition (kynurenine levels in supernatant after IFNγ induction). The settings on record: HeLa cells, IFNγ-induced IDO1, kynurenine in supernatant after 48 hour incubation; geometric mean of a minimum of four determinations. In short, it runs like this: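 IDO1 activity is read as kynurenine released into the medium, detected with Ehrlich's reagent (p-dimethylaminobenzaldehyde) at 480 nm after TCA treatment. HeLa cells were exposed 48 h to compounds in 0.5% DMSO alongside IFNγ induction. Values normalized to no-IFNγ and IFNγ controls; four-parameter EC50 given as geometric mean of ≥4 determinations.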
The compound `CN(C)CCc1nc2nccc(/C(=N/O)Nc3cccc(Br)c3)c2[nH]1` [Example 265, N-(3-bromophenyl)-2-(2-(dimethylamino)ethyl)-N′-hydroxy-1H-imidazo[4,5-b]pyridine-7-carboximidamide] displayed an EC50 of 0.501 µM.
The compound `CNc1nc2nccc(/C(=N/O)Nc3cccc(Cl)c3)c2[nH]1` [Example 166, N-(3-Chlorophenyl)-N′-hydroxy-2-(methylamino)-1H-imidazo[4,5-b]pyridine-7-carboximidamide] yielded an EC50 of 0.383 µM.
`COc1cccc(N/C(=N\O)c2ccnc3nc[nH]c23)c1` [Example 92, N′-Hydroxy-N-(3-methoxyphenyl)-1H-imidazo[4,5-b]pyridine-7-carboximidamide] displayed an EC50 of 3.89 µM.
The same measure, in the same setting: the result for `O/N=C(\Nc1ccc(F)c(Cl)c1)c1ccc(F)c2nc(NCCCN3CCOCC3)[nH]c12` [Example 200, N-(3-Chloro-4-fluorophenyl)-7-fluoro-N′-hydroxy-2-(3-morpholin-4-ylpropylamino)-3H-benzimidazole-4-carboximidamide] reads 0.564 µM; that for `O/N=C(\Nc1ccc(F)c(Cl)c1)c1cc(F)c(F)c2nc(NCCN3CCC(F)(F)CC3)[nH]c12` [Example 36, N-(3-Chloro-4-fluorophenyl)-2-((2-(4,4-difluoropiperidin-1-yl)ethyl)amino)-4,5-difluoro-N′-hydroxy-1H-benzo[d]imidazole-7-carboximidamide], 0.712 µM; that for `COCCCNCc1nc2c(/C(=N/O)Nc3ccc(F)c(Cl)c3)cc(F)c(F)c2[nH]1` [Example 45, N-(3-Chloro-4-fluorophenyl)-6,7-difluoro-N′-hydroxy-2-(((3-methoxypropyl)amino)methyl)-1H-benzo[d]imidazole-4-carboximidamide], 1.32 µM.
`O/N=C(\Nc1ccc(F)c(C(F)(F)F)c1)c1ccnc2[nH]c(CCl)nc12` [Example 170, 2-(Chloromethyl)-N-(4-fluoro-3-(trifluoromethyl)phenyl)-N′-hydroxy-3H-imidazo[4,5-b]pyridine-7-carboximidamide] registered an EC50 of 1.94 µM.
Consider `O/N=C(\Nc1ccc(F)c(Cl)c1)c1ccnc2nc(CNCc3ccccn3)[nH]c12` [Example 121, N-(3-Chloro-4-fluorophenyl)-N′-hydroxy-2-(((pyridin-2-ylmethyl)amino)methyl)-1H-imidazo[4,5-b]pyridine-7-carboximidamide], for which the EC50 was 1.37 µM.
The same measure, in the same setting: next, `CN(C)CCNc1nc2c(F)c(F)cc(/C(=N/O)Nc3ccc(F)c(Cl)c3)c2[nH]1` [Example 43, N-(3-Chloro-4-fluorophenyl)-2-((2-(dimethylamino)ethyl)amino)-4,5-difluoro-N′-hydroxy-1H-benzo[d]imidazole-7-carboximidamide]: 0.136 µM.
Same read-out and setting: next, `O/N=C(\Nc1ccc(F)c(Cl)c1)c1c(F)ccc2nc[nH]c12` [Example 3, N-(3-Chloro-4-fluorophenyl)-6-fluoro-N′-hydroxy-1H-benzo[d]imidazole-7-carboximidamide]: 4.8 µM; `CC#Cc1cc(N/C(=N\O)c2ccnc3nc[nH]c23)ccc1F` [Example 84, N-(4-Fluoro-3-(prop-1-yn-1-yl)phenyl)-N′-hydroxy-1H-imidazo[4,5-b]pyridine-7-carboximidamide]: 0.445 µM; `O/N=C(\Nc1ccc2c(c1)OC(F)(F)O2)c1ccnc2nc[nH]c12` [Example 74, N-(2,2-Difluorobenzo[d][1,3]dioxol-5-yl)-N′-hydroxy-1H-imidazo[4,5-b]pyridine-7-carboximidamide]: 0.923 µM.
Still for that read-out and setting: the result for `O/N=C(\Nc1ccc(F)c(Cl)c1)c1ccnc2nc(CN3CCCC3)[nH]c12` [Example 139, N-(3-Chloro-4-fluorophenyl)-N′-hydroxy-2-(pyrrolidin-1-ylmethyl)-1H-imidazo[4,5-b]pyridine-7-carboximidamide] reads 1.4 µM.

Still in this assay, the particulars now being: HeLa cells, IFNγ-induced IDO1, kynurenine in supernatant, 48 hour incubation; geometric mean of a minimum of four determinations.
In the case of `CCNC(=O)NCCNc1nc2c(F)c(F)cc(/C(=N/O)Nc3ccc(F)c(Cl)c3)c2[nH]1` [Example 341, N-(3-chloro-4-fluorophenyl)-2-((2-(3-ethylureido)ethyl)amino)-4,5-difluoro-N′-hydroxy-1H-benzo[d]imidazole-7-carboximidamide], the EC50 is over 10 µM.
Consider `O/N=C(\Nc1ccc(F)c(Cl)c1)c1cc(F)c(F)c2nc(NCCn3cccn3)[nH]c12` [Example 300, 2-((2-(1H-pyrazol-1-yl)ethyl)amino)-N-(3-chloro-4-fluorophenyl)-4,5-difluoro-N′-hydroxy-1H-benzo[d]imidazole-7-carboximidamide], for which the EC50 amounted to 3.57 µM.
`CN(C)CC(C)(C)CNc1nc2c(F)c(F)cc(/C(=N/O)Nc3ccc(F)c(Cl)c3)c2[nH]1` [Example 351, N-(3-chloro-4-fluorophenyl)-2-((3-(dimethylamino)-2,2-dimethylpropyl)amino)-4,5-difluoro-N′-hydroxy-1H-benzo[d]imidazole-7-carboximidamide] displayed an EC50 of 0.432 µM.
In turn, `CC1(C)CNC1CNc1nc2c(F)c(F)cc(/C(=N/O)Nc3ccc(F)c(Cl)c3)c2[nH]1` (centres unmarked) [Example 472, N-(3-chloro-4-fluorophenyl)-2-(((3,3-dimethylazetidin-2-yl)methyl)amino)-4,5-difluoro-N′-hydroxy-1H-benzo[d]imidazole-7-carboximidamide] displayed an EC50 of 2.45 µM.
On the same count and under the same terms, next, `O/N=C(\Nc1ccc(F)c(Cl)c1)c1ccnc2nc(NCc3ncccn3)[nH]c12` [Example 494, N-(3-chloro-4-fluorophenyl)-N′-hydroxy-2-((pyrimidin-2-ylmethyl)amino)-1H-imidazo[4,5-b]pyridine-7-carboximidamide]: over 10 µM.
As to `CC1CN(CCNc2nc3nccc(/C(=N/O)Nc4ccc(F)c(Cl)c4)c3[nH]2)C(C)CO1` (centres unmarked) [Example 485, N-(3-chloro-4-fluorophenyl)-2-((2-(2,5-dimethylmorpholino)ethyl)amino)-N′-hydroxy-1H-imidazo[4,5-b]pyridine-7-carboximidamide], a half-maximal effect (EC50) was put at 0.639 µM.
Regarding `CN(C)CCCNc1nc2c(F)c(F)cc(/C(=N/O)Nc3ccc(F)c(Br)c3)c2[nH]1` [Example 387, N-(3-bromo-4-fluorophenyl)-2-((3-(dimethylamino)propyl)amino)-4,5-difluoro-N′-hydroxy-1H-benzo[d]imidazole-7-carboximidamide], the EC50 is 0.692 µM.
Same read-out and setting: the result for `O=S(=O)(NCCNc1nc2c(F)c(F)cc(/C(=N/O)Nc3ccc(F)c(Cl)c3)c2[nH]1)C1CC1` [Example 336, N-(3-chloro-4-fluorophenyl)-2-((2-(cyclopropanesulfonamido)ethyl)amino)-4,5-difluoro-N′-hydroxy-1H-benzo[d]imidazole-7-carboximidamide] reads over 10 µM.
On the same count and under the same terms, next, `O/N=C(\Nc1ccc(F)c(Cl)c1)c1cc(F)c(F)c2nc(NC3COCCC3N3CCCC3)[nH]c12` (centres unmarked) [Example 473, N-(3-chloro-4-fluorophenyl)-4,5-difluoro-N′-hydroxy-2-((4-(pyrrolidin-1-yl)tetrahydro-2H-pyran-3-yl)amino)-1H-benzo[d]imidazole-7-carboximidamide]: 1.03 µM; `CN(C)C1(CNc2nc3c(F)c(F)cc(/C(=N/O)Nc4ccc(F)c(Cl)c4)c3[nH]2)CCC1` [Example 441, N-(3-chloro-4-fluorophenyl)-2-(((1-(dimethylamino)cyclobutyl)methyl)amino)-4,5-difluoro-N′-hydroxy-1H-benzo[d]imidazole-7-carboximidamide]: over 10 µM.

For the origin of these results see patent US9951065B2 (Gilead Sciences, Inc., priority 2015, dated 2018).
